# According to patent US20130085283A1, “GERANYLGERANYLACETONE DERIVATIVES” (Coyote Pharmaceuticals, Inc., priority 2011, published 2013):
# What was measured:
# HSP90 = experiment: Expression of heat shock proteins in vivo, rat brain mRNA by qPCR; conditions: time 0 = 100%
# Description: (§1) GGA trans isomer in 5% Gum Arabic as an aqueous suspension formulation were orally dosed to Sprague-Dawley rats at 12 mg/Kg body weight. Rat brain tissues were extracted in various time points after the oral dosing. mRNA were prepared from those brain tissues extracted, and cDNA were produced. qPCR analysis was done by using primers specifically designed to detect mRNA of HSPs. GAPDH gene was used as a control to compare quantities of HSP cDNAs amplified by qPCR analysis. Amounts of cDNA quantified at time 0 are normalized as 100%, and relative amounts of cDNA compared with those at various time points are depicted in the tables below: […]
# HSP70 [1] = experiment: as above; conditions: time 0 = 100%
# Description: as §1
# HSP27 = experiment: as above; conditions: time 0 = 100%
# Description: as §1
# HSP60 = experiment: as above; conditions: time 0 = 100%
# Description: as §1
# GAPDH = experiment: Expression of heat shock proteins in vivo, rat brain mRNA by qPCR (control gene); conditions: time 0 = 100%
# Description: as §1
# HSP70 [2] = experiment: HSP70 protein in rat brain lysates by Western blotting after oral dosing; assay type: in vivo
# Description: The compounds tabulated below or vehicle controls were orally dosed at 12 mg/kg to Sprague-Dawley rats. Rat brain tissues were extracted in various time points after the oral dosing. Lysates were prepared from the harvested brain tissues. Western blotting analysis was done for the same protein amounts of these lysates, and western signals of HSP70 were detected by chemiluminescence and quantified in parallel with comparisons of those detected at time 0 hr. Western signals at time 0 hr were normalized as 100.
# [3] = 12 hr after oral 12 mg/Kg in 5% Gum Arabic
# [4] = 24 hr after oral 12 mg/Kg in 5% Gum Arabic
# [5] = 48 hr after oral 12 mg/Kg in 5% Gum Arabic
# [6] = 96 hr after oral 12 mg/Kg in 5% Gum Arabic
smiles,measurement,setting,value
"CC(=O)CC/C=C(\C)CC/C=C(\C)CC/C=C(\C)CCC=C(C)C (single isomer, unassigned) [GGA trans isomer, 5E,9E,13E-Geranylgeranyl acetone]",HSP90 relative amount of cDNA,HSP90; [3],107.69%
same,HSP90 relative amount of cDNA,HSP90; [4],106.92%
same,HSP90 relative amount of cDNA,HSP90; [5],105.38%
same,HSP90 relative amount of cDNA,HSP90; [6],100.77%
same,HSP70 relative amount of cDNA,HSP70 [1]; [3],118.46%
same,HSP70 relative amount of cDNA,HSP70 [1]; [4],107.69%
same,HSP70 relative amount of cDNA,HSP70 [1]; [5],106.15%
same,HSP70 relative amount of cDNA,HSP70 [1]; [6],103.85%
same,HSP27 relative amount of cDNA,HSP27; [3],115.38%
same,HSP27 relative amount of cDNA,HSP27; [4],114.61%
same,HSP27 relative amount of cDNA,HSP27; [5],116.15%
same,HSP27 relative amount of cDNA,HSP27; [6],103.84%
same,HSP60 relative amount of cDNA,HSP60; [3],113.84%
same,HSP60 relative amount of cDNA,HSP60; [4],130.00%
same,HSP60 relative amount of cDNA,HSP60; [5],116.92%
same,HSP60 relative amount of cDNA,HSP60; [6],103.85%
same,GAPDH relative amount of cDNA (control gene),GAPDH; [3],96.93%
same,GAPDH relative amount of cDNA (control gene),GAPDH; [4],99.24%
same,GAPDH relative amount of cDNA (control gene),GAPDH; [5],100%
same,GAPDH relative amount of cDNA (control gene),GAPDH; [6],102.31%
same,Western signal of HSP70 in brain,"HSP70 [2]; 12 hr after oral 12 mg/kg, time 0 hr = 100, Vehicle 102%",115%
same,Western signal of HSP70 in brain,"HSP70 [2]; 48 hr after oral 12 mg/kg, time 0 hr = 100, Vehicle 105%",115%
same,Western signal of HSP70 in brain,"HSP70 [2]; 96 hr after oral 12 mg/kg, time 0 hr = 100, Vehicle 99%",114%
